The source of these data is patent US5369112A, “Method of treating cataracts caused by active oxygen” (Mitsubishi Gas Chemical Company, Inc., priority 1991, dated 1994).

The test system of data set [1] is male mice SPF-ICR. Briefly: Acute toxicity test (1), intraperitoneal. The following applies: mouse, in vivo. How it is done: To male mice SPF-ICR five weeks old (supplied by Japan Charles River Co.) were intraperitoneally administered PQQ·2Na, PQQ trimethyl ester, PQQ triallyl ester, OPQ, 1-methylpropyl OPQ, 2-methylthioethyl OPQ and benzyl OPQ at dosages of 40, 80, 160 and 200 mg per kg of body weight of mouce, respectively and they were bred for 14 days at 25° C. One group consisted of 8 mice. For administration, PQQ·2Na and OPQ and esters thereof were dissolved in physiological saline and PQQ trimethyl ester and PQQ triallyl ester were suspended in 1% Tween 80-containing physiological saline, respectively.

Data set [2] concerns male mice SPF-ICR. Briefly: Acute Toxicity Test (3), intraperitoneal. The conditions noted are these: for mice died: 8 mice per group, 14 days. The class given is in vivo. The text has this: One group consisted of 8 mice.
Data set [3] concerns male mice SPF-ICR. Briefly: Acute Toxicity Test (4), oral. The class given is in vivo. The following applies: oral 1.0, 1.5 and 2.0 g/kg, 8 mice per group, 14 days. How it is done: To male mice SPF-ICR five weeks old (supplied by Japan Charles River Co.) was orally administered OPQ at dosages of 1.0, 1.5 and 2.0 g per kg of body weight of mouse, respectively and they were bred for 14 days at 25° C. One group consisted of 8 mice. No mice died.

In data set [4] the test system is mice. The conditions noted are these: mouse, in vivo, ip. The procedure:
One group consisted of 8 mice. For administration, PQQ·2Na and OPQ and esters thereof were dissolved in physiological saline and PQQ trimethyl ester and PQQ triallyl ester were suspended in 1% Tween 80-containing physiological saline, respectively.
PQQ·2Na, PQQ trimethyl ester, PQQ triallyl ester and OPQ and esters thereof were intraperitoneally administered to mice and they were bred in the same manner as in the above acute toxicity test. Urine of the mice was taken every day and glucose concentration was measured using clinical examination reagent (trademark: […] 2 manufactured by Miles.Sankyo Co.).

Data set [5] deals with mice. Briefly: Kidney Toxicity Determined by Blood Examination (1). The class given is in vivo. The following applies: mouse serum. The procedure: After lapse of one day from the administration, the mice were fasted (with feeding only water) and then after 18 hours, blood was collected and serum was obtained therefrom. Glucose, urea nitrogen and creatinine in the serum were examined by clinical examination reagent (trademark: FUJI DRYCHEMSLIDE manufactured by Fuji Photo Film Co., Ltd.).

In data set [6] the test system is mice. Briefly: Kidney Toxicity Determined by Blood Examination (3). In kind it is in vivo. The following applies: mouse serum. The procedure:
Thereafter, the mice were fasted (with feeding only water) and then after 18 hours, blood was collected and serum was obtained therefrom. Glucose, urea nitrogen and creatinine in the serum were examined by clinical examination reagent (trademark: FUJI DRYCHEMSLIDE manufactured by Fuji Photo Film Co., Ltd.).

Data set [7] can be described thus: Superoxide scavenging activity (hypoxanthine-xanthine oxidase, DMPO spin trapping, ESR). In kind it is biochemical. The conditions noted are these: Example 2, Table 7; pH 7.3; read-out: O2^- scavenging activity IC50. The text has this: Activity of PQQ esters to scavenge superoxide (O2^-) produced in the system of hypoxanthinexanthine oxidase was examined by spin trapping method [using 5,5-dimethyl-l-pyrroline-N-oxide (hereinafter referred to as "DMPO") as a spin trapping agent] where electron spin resonance (hereinafter referred to as "ESR") was used.
Hypoxanthine+2O2 →2O2^- +uric acid (xanthine oxidase)
The following reagents were successively put in a test tube and stirred after addition of the hypoxanthine 7 to initiate the reaction and the reaction mixture was transferred to a quartz cell used for measurement of ESR.
Superoxide scavenging activity of OPQ and esters thereof was examined in the same manner as in Example 1.

The nature of data set [8]: Hydroxy radical scavenging activity (H2O2-(Fe^2+-DTPA), DMPO spin trapping, ESR). In kind it is biochemical. The conditions noted are these: Example 4, Table 9; pH 7.3; read-out: .OH scavenging activity IC50. The text has this:
Activity of PQQ esters to scavenge hydroxy radical (·OH) produced in the system of H2 O2 --(Fe^2+ -DTPA) was examined by spin trapping method [using 5,5-dimethyl-1-pyrroline-N-oxide (hereinafter referred to as "DMPO") as a spin trapping agent] where electron spin resonance (hereinafter referred to as "ESR") was used. DTPA means diethylenetriamine-pentaacetic acid.
H2 O2 +Fe^2 -DTPA complex→·OH+OH^-
The following reagents were successively put in a test tube and stirred after addition of H2 O2 6 to initiate the reaction and the reaction mixture was transferred to a quartz cell used for measurement of ESR.
Hydroxy radical scavenging activity of OPQ and esters thereof was examined in the same manner as in Example 3.

The test system of data set [9] is Hydrocortisone-Induced Cataract of Hen's Eggs. Briefly: Effect on hydrocortisone-induced cataract of hen's eggs. The class given is in vivo, white leghorn (hen's eggs). The following applies: 1 μmole at 3, 10 and 20 h after hydrocortisone; lens at 48 h. How it is done:
Fertilized eggs of white leghorn were incubated in an incubator at a temperature of 37° C. and 70% in humidity. The day on which the incubation was started was taken to be one day old. […] eggs of 15 day old were prepared and divided into 7 groups, each of which included 5 eggs (A-G). A small hole was bored through the eggshell above air chamber of the eggs of groups B-G and 0.25 μmole (as 0.2 ml solution) of hydrocortisone sodium succinate was administered into the air chamber through the hole and then, the hole was sealed with a cellophane tape. To The eggs of groups C-G was administered 1 μmole of following compounds after 3, 10 and 20 hours from administration of hydrocortisone sodium succinate. That is, 0.2 ml of a solution of PQQ·2Na in distilled water was administered to the eggs of group C, 0.2 ml of a suspension of PQQ trimethyl ester in 1% Tween 80 solution was administered to the eggs of group D, 0.2 ml of a suspension of triallyl ester in 1% Tween 80 solution was administered to the eggs of group E, 0.2 ml of a solution of OPQ in 10 mM NaCO3 solution was administered to the eggs of group F, and 0.2 ml of a solution of methyl OPQ in 10 mM NaCO3 solution was administered to the eggs of group G.
Crystal lens was taken out after 48 hours from administration of hydrocortisone sodium succinate and degree of cataract was judged by the criteria according to the Nishigori et al method (Nishigori et al, "Investigative Ophthalmology & Visual Science", Vol. 25, page 1051, 1984).
5 The whole nucleus was hazed in white.

The conditions of data set [10]: 109th meeting of Japan Pharmacological Society, 1989; cited from earlier work.
Data set [11] has as its system liver diseases caused by carbon tetrachloride, endotoxin shock and cataracts caused by hydrocortisone. The following applies: Watanabe 1988; Matsumoto 1989; Nishigoori 1989; cited from earlier work.
For a further data set, the system named is kidney. The following applies: Watanabe et al, Hiroshima J. Med. Sci.; cited from earlier work.

Like-named read-outs stand apart in the source and are kept apart here.

Consider `O=C(O)c1cc(C(=O)O)c2c(n1)c1ncoc1c1cc(C(=O)O)[nH]c12` [OPQ, 2,8,10-tricarboxy-1-H-oxazo[5,4-h]-pyrrolo[2,3-f]quinoline], for which the mice died entry in the data set with male mice SPF-ICR [1] is given as “no mice died”; in the data set with male mice SPF-ICR [2] (i.p. 0.1-0.4 g/kg) it was “No mice died”; in the data set with male mice SPF-ICR [2] (i.p. 0.8 g/kg), “two mice died”; in the data set on male mice SPF-ICR [2] (i.p. 1.0 g/kg) it was “three mice died”; in the data set on male mice SPF-ICR [2] (i.p. 1.2 g/kg), “six mice died”; in the data set on male mice SPF-ICR [3] it was “No mice died”. In the data set on male mice SPF-ICR [2] (mouse, in vivo, ip, 336 h), the LD50 result was “about 1.0 g/kg-mouse”. The glucose in urine result with mice [4] (20 mg/kg), in the data set on mice [4] (40 mg/kg), with mice [4] (80 mg/kg), in the data set on mice [4] (160 mg/kg), with mice [4] (200 mg/kg) and with mice [4] (400 mg/kg) was “-” in each case. Further, the glucose in urine result with mice [4] (800 mg/kg), in the data set with mice [4] (1000 mg/kg) and with mice [4] (1200 mg/kg) was “-” each time. The Creatinine was 0.70 ± 0.10 mg/dL in the data set on mice [5] (40 mg/kg); 0.80 ± 0.10 mg/dL in the data set on mice [5] (80 mg/kg); 0.73 ± 0.09 mg/dL in the data set with mice [5] (160 mg/kg); 0.81 ± 0.08 mg/dL with mice [5] (200 mg/kg); 0.75 ± 0.05 mg/dL in the data set on mice [6] (i.p. 150 mg/kg); 0.78 ± 0.04 mg/dL in the data set with mice [6] (i.p. 300 mg/kg). In addition, the Creatinine amounted to 0.78 ± 0.04 mg/dL in the data set with mice [6] (i.p. 400 mg/kg) and 0.78 ± 0.11 mg/dL with mice [6] (i.p. 600 mg/kg). In addition, the Glucose is 90 ± 18 mg/dL in the data set on mice [5] (40 mg/kg); 86 ± 10 mg/dL in the data set on mice [5] (80 mg/kg); 90 ± 23 mg/dL in the data set on mice [5] (160 mg/kg); 85 ± 24 mg/dL in the data set with mice [5] (200 mg/kg); 106 ± 21 mg/dL in the data set with mice [6] (i.p. 150 mg/kg); 80 ± 15 mg/dL with mice [6] (i.p. 300 mg/kg). Moreover, the Glucose in the data set on mice [6] (i.p. 400 mg/kg) came out at 104 ± 18 mg/dL; in the data set with mice [6] (i.p. 600 mg/kg), 74 ± 11 mg/dL. Moreover, the Urea nitrogen in the data set on mice [5] (40 mg/kg) turned out to be 25 ± 3 mg/dL; in the data set with mice [5] (80 mg/kg), 23 ± 4 mg/dL; in the data set on mice [5] (160 mg/kg), 27 ± 6 mg/dL; with mice [5] (200 mg/kg), 28 ± 4 mg/dL; in the data set with mice [6] (i.p. 150 mg/kg), 32 ± 3 mg/dL; with mice [6] (i.p. 300 mg/kg), 29 ± 2 mg/dL. Further, the Urea nitrogen with mice [6] (i.p. 400 mg/kg) amounted to 29 ± 3 mg/dL; in the data set with mice [6] (i.p. 600 mg/kg), 32 ± 5 mg/dL. Moreover, the IC50 (usually the concentration at which inhibition is half-maximal) in data set [7] was 1.22 µM; in data set [8], 198 µM. In addition, in [9], the “Judgement 2 (Slight opaque ring was seen in crystal lens), eggs” value is given as 1/5. The “Judgement 3 (Clear ring of white haze was seen in crystal lens), eggs” value in [9] is 1/5. Moreover, in data set [9], the “Judgement 4 ~ 5 (white haze of pinhole size in nucleus ~ whole nucleus hazed in white), eggs” value is 3/5.
Take `O=C(O)c1cc(C(=O)O)c2c(n1)C(=O)C(=O)c1cc(C(=O)O)[nH]c1-2` [PQQ, pyrrolo quinoline quinone]: the “active oxygen scavenging action” value in [10] is given as “strong active oxygen scavenging action”. The “inhibition of diseases” value in data set [11] is “inhibits liver diseases caused by carbon tetrachloride, endotoxin shock and cataracts caused by hydrocortisone”. Moreover, the “kidney toxicity” value in the data set on kidney is reported as “has kidney toxicity”.
